Test results: patent US20250136594A1 (Tango Therapeutics, Inc., priority 2022, published 2025)

Assays:
[1] = tested on: HAP1 MTAP-deleted cell line; assay: Viability assay, HAP1 MTAP-deleted cell line; assay type: cell-based; conditions: Homo sapiens; viability assay, HAP1 MTAP-deleted cell line; read-out: Hap1 MTAP deleted viability IC50
[2] = tested on: SDMA in HAP1 MTAP-intact cell line (PRMT5 inhibition); assay: SDMA in-cell western assay, HAP1 MTAP-intact cell line; conditions: Homo sapiens, HAP1, read-out: Hap1 MTAP intact IC50
[3] = tested on: SDMA in HAP1 MTAP-deleted (MTAP-null) cell line (PRMT5 inhibition); assay: SDMA in-cell western assay, HAP1 MTAP-deleted cell line; conditions: for IC50 / IC90: Homo sapiens; for IC50: HAP1, read-out: Hap1 MTAP deleted IC50; for IC90: HAP1, read-out: Hap1 MTAP deleted IC90; for Hap1 MTAP intact/deleted ratio: ratio of SDMA IC50 in HAP1 MTAP-intact to HAP1 MTAP-deleted cell line

| Compound | IC50 [2] [nM] | IC50 [3] [nM] | IC90 [3] [nM] | IC50 [1] [nM] | Hap1 MTAP intact/deleted ratio [3] |
| --- | --- | --- | --- | --- | --- |
| Nc1ncc(NC(=O)C(=O)N(Cc2cc(F)cc(F)c2)Cc2cc(F)cc(F)c2)c2[nH]ncc12 [Compound 2, N-(4-amino-1H-pyrazolo[4,3-c]pyridin-7-yl)-N′,N′-bis[(3,5-difluorophenyl)methyl]oxamide] | > 50 | 5 to 50 | > 125 | 100 to 1000 | A (IC50 ratio greater than or equal to 30 fold) |
| CC(C)C(C)N(Cc1ccc(C(F)(F)F)cn1)C(=O)C(=O)Nc1cncc(C(N)=O)c1 (centres unmarked) [Compound 20, N-(5-carbamoyl-3-pyridyl)-N′-(1,2-dimethylpropyl)-N′-[[5-(trifluoromethyl)-2-pyridyl]methyl]oxamide] | > 50 | 5 to 50 | > 125 | 100 to 1000 | B (IC50 ratio greater than or equal to 15 fold but lower than 30 fold) |
| O=C(Nc1ccn2ccnc2c1)C(=O)N(Cc1ccc(C(F)(F)F)cn1)[C@@H]1CCc2ccccc21 [Compound 15, (R)—N^1-(2,3-dihydro-1H-inden-1-yl)-N^2-(imidazo[1,2-a]pyridin-7-yl)-N^1-((5-(trifluoromethyl)pyridin-2-yl)methyl)oxalamide] | > 50 | 5 to 50 | > 125 | 100 to 1000 | A (IC50 ratio greater than or equal to 30 fold) |
| CC(CN(Cc1ccc(C(F)(F)F)cn1)C(=O)C(=O)Nc1cnc(N)c(C2CC2)c1)C1CC1 (centres unmarked) [Compound 13, N-(6-amino-5-cyclopropyl-3-pyridyl)-N′-(2-cyclopropylpropyl)-N′-[[5-(trifluoromethyl)-2-pyridyl]methyl]oxamide] | > 50 | 5 to 50 | > 125 | 100 to 1000 | A (IC50 ratio greater than or equal to 30 fold) |
| Cc1ccccc1CN(Cc1ccccc1)C(=O)C(=O)Nc1cnc(C)c2cn[nH]c12 [Compound 90] | > 50 | < 5 | > 125 | 100 to 1000 | A (IC50 ratio greater than or equal to 30 fold) |
| CC1CCC(N(Cc2ccc(C(F)(F)F)cn2)C(=O)C(=O)Nc2cncc3cn[nH]c23)c2ccccc21 (centres unmarked) [Compound 17, N′-(4-methyltetralin-1-yl)-N-(1H-pyrazolo[4,3-c]pyridin-7-yl)-N′-[[5-(trifluoromethyl)-2-pyridyl]methyl]oxamide] | > 50 | 5 to 50 | > 125 | < 100 | C (IC50 ratio of less than 15 fold) |
| Nc1ncc(NC(=O)C(=O)N(Cc2ccccc2)CC2CCCCC2)c2[nH]ncc12 [Compound 175, N-(4-amino-1H-pyrazolo[4,3-c]pyridin-7-yl)-N′-benzyl-N′-(cyclohexylmethyl)oxamide] | > 50 | < 5 | < 75 | < 100 | A (IC50 ratio greater than or equal to 30 fold) |
| CC(C)c1ccccc1CN(C)C(=O)C(=O)Nc1cnc(N)c2cn[nH]c12 [Compound 183, N-(4-amino-1H-pyrazolo[4,3-c]pyridin-7-yl)-N′-[(2-isopropylphenyl)methyl]-N′-methyl-oxamide] | > 50 | 5 to 50 | > 125 | 100 to 1000 | A (IC50 ratio greater than or equal to 30 fold) |
| CCN(Cc1ccc(F)cc1C)C(=O)C(=O)Nc1cnc(N)c2cn[nH]c12 [Compound 166, N-(4-amino-1H-pyrazolo[4,3-c]pyridin-7-yl)-N′-ethyl-N′-[(4-fluoro-2-methyl-phenyl)methyl]oxamide] | > 50 | < 5 | > 125 | < 100 | A (IC50 ratio greater than or equal to 30 fold) |
| CC(C)CN(Cc1ccccc1)C(=O)C(=O)Nc1cnc(N)c2cn[nH]c12 [Compound 101, N-(4-amino-1H-pyrazolo[4,3-c]pyridin-7-yl)-N′-benzyl-N′-isobutyl-oxamide] | > 50 | < 5 | 75 to 125 | < 100 | A (IC50 ratio greater than or equal to 30 fold) |
| NC(=O)c1ccc(CN(Cc2ncccn2)C(=O)C(=O)Nc2cnc(N)c3cn[nH]c23)nc1 [Compound 136, N-(4-amino-1H-pyrazolo[4.3-c]pyridin-7-yl)-N′-[(5-carbamoyl-2-pyridyl)methyl]-N′-(pyrimidin-2-ylmethyl)oxamide] | > 50 | > 50 | > 125 | > 1000 | C (IC50 ratio of less than 15 fold) |
| COC[C@@H](C1CC1)N(Cc1ccc(C(F)(F)F)cn1)C(=O)C(=O)Nc1cncc(C(N)=O)c1 [Compound 34, (R)-N1-(5-carbamoylpyridin-3-yl)-N2-(1-cyclopropyl-2-methoxyethyl)-N2-((5-(trifluoromethyl)pyridin-2-yl)methyl)oxalamide] | > 50 | 5 to 50 | 75 to 125 | 100 to 1000 | B (IC50 ratio greater than or equal to 15 fold but lower than 30 fold) |
| Cc1cc(F)cnc1CN(Cc1ccc(F)cn1)C(=O)C(=O)Nc1cnc(N)c2cn[nH]c12 [Compound 88, N-(4-amino-1H-pyrazolo[4,3-c]pyridin-7-yl)-N′-[(5-fluoro-3-methyl-2-pyridyl)methyl]-N′-[(5-fluoro-2-pyridyl)methyl]oxamide] | 5 to 50 | < 5 | < 75 | < 100 | B (IC50 ratio greater than or equal to 15 fold but lower than 30 fold) |

Continued, in another order:

| IC50 [2] [nM] | IC50 [3] [nM] | IC90 [3] [nM] | Compound | IC50 [1] [nM] | Hap1 MTAP intact/deleted ratio [3] |
| --- | --- | --- | --- | --- | --- |
| 5 to 50 | < 5 | < 75 | Nc1ncc(NC(=O)C(=O)N(Cc2ccccc2)Cc2ncc(F)cc2Cl)c2[nH]ncc12 [Compound 65, N-(4-amino-1H-pyrazolo[4,3-c]pyridin-7-yl)-N′-benzyl-N′-[(3-chloro-5-fluoro-2-pyridyl)methyl]oxamide] | < 100 | C (IC50 ratio of less than 15 fold) |
| < 5 | < 5 | < 75 | Nc1ncc(NC(=O)C(=O)N(Cc2ccccn2)Cc2cccc3c2CCCO3)c2[nH]ncc12 [Compound 92, N-(4-amino-2H-pyrazolo[4,3-c]pyridin-7-yl)-N′-(chroman-5-ylmethyl)-N′-(2-pyridylmethyl)oxamide] | < 100 | C (IC50 ratio of less than 15 fold) |
| 5 to 50 | < 5 | < 75 | Cc1cc(F)ccc1CN(Cc1ccccc1)C(=O)C(=O)Nc1cnc(N)c2cn[nH]c12 [Compound 149, N-(4-amino-1H-pyrazolo[4,3-c]pyridin-7-yl)-N′-benzyl-N′-[(4-fluoro-2-methyl-phenyl)methyl]oxamide] | < 100 | B (IC50 ratio greater than or equal to 15 fold but lower than 30 fold) |
| 5 to 50 | 5 to 50 | 75 to 125 | Nc1ncc(NC(=O)C(=O)N(Cc2ccc(C(F)(F)F)cn2)Cc2ccccc2C(F)(F)F)c2[nH]ncc12 [Compound 163, N-(4-amino-1H-pyrazolo[4,3-c]pyridin-7-yl)-N′-[[2-(trifluoromethyl)phenyl]methyl]-N′-[[5-(trifluoromethyl)-2-pyridyl]methyl]oxamide] | < 100 | C (IC50 ratio of less than 15 fold) |
| 5 to 50 | < 5 | < 75 | Nc1ncc(NC(=O)C(=O)N(Cc2ccc(C(F)(F)F)cn2)Cc2ncccn2)c2[nH]ncc12 [Compound 25, N-(4-amino-1H-pyrazolo[4,3-c]pyridin-7-yl)-N′-(pyrimidin-2-ylmethyl)-N′-[[5-(trifluoromethyl)-2-pyridyl]methyl]oxamide] | < 100 | B (IC50 ratio greater than or equal to 15 fold but lower than 30 fold) |
| 5 to 50 | < 5 | < 75 | C[C@H](c1ccc(C(F)(F)C(F)(F)F)cc1)N(C)C(=O)C(=O)Nc1cnc(N)c2c1cnn2C [Compound 81, N-(7-Amino-1-methyl-pyrazolo[3,4-c]pyridin-4-yl)-N′-methyl-N′—[(1R)-1-[4-(1,1,2,2,2-pentafluoroethyl)phenyl]ethyl]oxamide] | < 100 | A (IC50 ratio greater than or equal to 30 fold) |
| 5 to 50 | < 5 | < 75 | C[C@H](c1ccc(C(F)(F)C(F)(F)F)cc1)N(C)C(=O)C(=O)Nc1cnc(N)c2cn[nH]c12 [Compound 121, N-(4-amino-1H-pyrazolo[4,3-c]pyridin-7-yl)-N′-methyl-N′—[(1R)-1-[4-(1,1,2,2,2-pentafluoroethyl)phenyl]ethyl]oxamide] | < 100 | B (IC50 ratio greater than or equal to 15 fold but lower than 30 fold) |
| 5 to 50 | < 5 | < 75 | CCN(Cc1ccc(S(F)(F)(F)(F)F)cc1)C(=O)C(=O)Nc1cnc(N)c2cn[nH]c12 [Compound 150, N-(4-amino-1H-pyrazolo[4,3-c]pyridin-7-yl)-N′-ethyl-N′-[[4-(pentafluoro-sulfanyl)phenyl]methyl]oxamide] | < 100 | C (IC50 ratio of less than 15 fold) |
| 5 to 50 | < 5 | < 75 | Cc1c(CN(Cc2ccccn2)C(=O)C(=O)Nc2cnc(N)c3cn[nH]c23)cccc1N(C)C [Compound 124, N1-(4-amino-1H-pyrazolo[4,3-c]pyridin-7-yl)-N^2-(3-(dimethylamino)-2-methylbenzyl)-N^2-(pyridin-2-ylmethyl)oxalamide] | < 100 | C (IC50 ratio of less than 15 fold) |
